According to US10844101B2, “Plant-derived elastin binding protein ligands and methods of using the same” (ELASTOGENESIS, LLC, priority 2005, dated 2020):
Entries after “also recorded” stand apart in the source; their conditions may differ.

Key:
[1] = test system: elastin gene in adult dermal fibroblasts; assay: RT-PCR with specific tropoelastin probe (transcription of the elastin gene); format: cell-based, human; settings: serum-free medium and 10% FBS
Description: Using a BLAST search through the National Library of Medicine website, we identified the IGVAPG (SEQ ID NO. 13) domain in the amino acid sequence for a transcription factor of Japanese rice, which also reflects the common EBP-binding GXXPG (SEQ ID NO. 2) motif found in elastin and laminin. We used RT-PCR to measure transcription of the elastin gene by peptides of the invention.

human dermal fibroblasts = assay: Immunostaining with anti-tropoelastin antibody and morphometric analysis of elastic fiber deposition in 7-day dermal fibroblast cultures; format: cell-based; settings: for elastogenesis level compared with VGVAPG or EBPL-1 treated cultures: 7 day-old primary cultures of dermal fibroblasts; for extracellular elastic fibers deposited (anti-tropoelastin immunostaining) / levels of intra- and extracellular tropoelastin (immunocytochemical staining): 7 days; for extracellular elastic fibers deposited (anti-tropoelastin immunostaining): fibroblasts, VGVAPG 5 μg/mL, EBPL-2 5 μg/mL, EBPL-3 10 μg/mL; for more elastic fibers / tropoelastin than control cultures, maximally produced (quantitative morphometric analysis of immuno-detectable tropoelastin): maximum effect vs control
Method: In all experiments except those using CDBR, consecutive passages 3-7 were tested. Cells were incubated in the presence and absence of VGVAPG (SEQ ID NO. 1) (5 μg/mL), EBPL-2 (5 μg/mL) and EBPL-3 (10 μg/mL). In experiments using CDRB cell passage 3 was tested, cells were densely plated (50×10^6 cells/dish) to rich immediate confluency and than cultured for 7 days in the presence and absence of 25 μg/ml CDBR (added at day 1 and 3).

[2] = test system: human fibroblasts derived from normal human skin; assay: [3H]-valine metabolic labeling and assay of newly deposited NaOH-insoluble elastin in fibroblast cultures; format: cell-based; settings: [3H]-valine labeling 3 days; for net deposition of insoluble elastin, maximum over control values: expressed per culture dish, dose dependent
Method: Fibroblasts were densely plated (50×10^5/dish) and grown to confluency in 10 cm cell culture dishes in quadruplicate. 20 μCi of [^3H]-valine was added to each dish along with fresh media. Cultures were then incubated for 72 hours and insoluble elastin was assessed separately in each culture.

human skin explants = assay: Organ cultures of human skin explants stained with Movat pentachrome stain; format: cell-based
dermal fibroblasts = assay: Cellular proliferation by [3H]-thymidine incorporation; format: cell-based, human; settings: dermal fibroblasts vs control
Description: Results of this calculation, showing a more profound effect of EBPL-2 on net deposition of insoluble elastin per culture, led to the hypothesis that EBPL-2, similarly to VGVAPG (SEQ ID NO. 1), also stimulates cellular proliferation.

[3] = adult dermal fibroblasts, 7 day old cultures
[4] = organ cultures of human skin biopsies

“IGVAPG (Synthetic derived from Oryza sativa) [EBPL-2]” was tested, and the “transcription of the elastin gene” value [1] was “increased transcription of the elastin gene”, the “elastogenesis level compared with VGVAPG or EBPL-1 treated cultures” value (human dermal fibroblasts) was “capable of inducing elastogenesis to the levels that exceed those obtained in cultures treated with VGVAPG; also recorded: higher net deposition of tropoelastin than their counterparts cultured with VGVAPG” and the “extracellular elastic fibers deposited (anti-tropoelastin immunostaining)” value (“extracellular elastic fibers deposited” for short) (human dermal fibroblasts) was “deposition of thick extracellular elastic fibers”. For the same substance, the “more elastic fibers / tropoelastin than control cultures, maximally produced (quantitative morphometric analysis of immuno-detectable tropoelastin)” value (human dermal fibroblasts; [3]) was 710%, the “more tropoelastin than maximum ProK-60-induced levels” value (human dermal fibroblasts; adult dermal fibroblasts, 7 day old cultures, maximum vs maximum ProK-60) was 141% and the “levels of intra- and extracellular tropoelastin (immunocytochemical staining)” value (human dermal fibroblasts; adult dermal fibroblasts) was “enhanced levels of intra- and extracellular tropoelastin”. For the same substance, the “more radioactively labeled insoluble elastin as compared to non-treated fibroblasts” value ([2]; 10 μg/mL, normalized per DNA content) was 36%, the “net deposition of insoluble elastin, maximum over control values” [2] was 175% and the “elastic fibers (black stain) in skin explant organ cultures” value (human skin explants; 10-day old organ cultures, person) was “contained more elastic fibers”. For the same substance, the “dilatation of existing dermal capillaries” value (human skin explants; [4]) was “stimulates dilatation of existing capillaries”, the “production of new elastic fibers by pericytes” value (human skin explants; [4]) was “stimulated production of new elastic fibers by pericytes” and the “incorporation of [3H]-thymidine (cellular proliferation)” value (dermal fibroblasts) was “higher than control incorporation of [^3H]-thymidine”.

For “IGVAPGAAAAAIGVAPG (Synthetic derived from Oryza sativa) [EBPL-3]”, the “elastogenesis level compared with VGVAPG or EBPL-1 treated cultures” value (human dermal fibroblasts) was “capable of inducing elastogenesis to the levels that exceed those obtained in cultures treated with VGVAPG” and the “extracellular elastic fibers deposited” value (human dermal fibroblasts) was “deposition of thick extracellular elastic fibers”.

With “VGVAPG (Synthetic derived from Oryza sativa) [elastin receptor ligand hexapeptide obtained from Sigma, reference compound]” the “transcription of the elastin gene” value [1] was “stimulated transcription”, the “extracellular elastic fibers deposited” value (human dermal fibroblasts) was “very thin extracellular elastic fibers at levels greater than the control levels” and the “more elastic fibers / tropoelastin than control cultures, maximally produced (quantitative morphometric analysis of immuno-detectable tropoelastin)” value (human dermal fibroblasts; [3]) was 457%. The “levels of intra- and extracellular tropoelastin (immunocytochemical staining)” value (human dermal fibroblasts; adult dermal fibroblasts) was “enhanced levels of intra- and extracellular tropoelastin”, the “net deposition of insoluble elastin, maximum over control values” [2] was 109% and the “incorporation of [3H]-thymidine (cellular proliferation)” value (dermal fibroblasts) was “higher than control incorporation of [^3H]-thymidine”.

For “VGVAPGAAAAAVGVAPG (Synthetic derived from Oryza sativa) [EBPL-1]”, the “extracellular elastic fibers deposited” value (human dermal fibroblasts) was “very thin extracellular elastic fibers at levels greater than the control levels”.
